The source of these data is patent US20260183274A1, “PDK1 REGULATORY COMPOUND AND COMPOSITION CONTAINING THE SAME” (PROVIBIO CO., LTD., priority 2024, published 2026).

Data set [1] has as its system T cells isolated from mouse spleens. Briefly: T cell proliferation inhibition (CFSE flow cytometry, anti-CD3/anti-CD28 stimulation). In kind it is cell-based. As to conditions: mouse spleen T cells, 3 days; for inhibition at 0.01 µM / inhibition at 0.1 µM / inhibition at 1 µM / inhibition at 10 µM / inhibition at 30 µM / inhibition at 50 µM: Mus musculus, T-cell, 72 h, read-out: Proliferation inhibition rate (%). A digest of the protocol: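 Splenic T cells from 7-week-old C57BL/6 mice were MACS-isolated, CFSE-labelled, seeded at 2×10^5 cells/well and activated with anti-CD3/anti-CD28 (0.5 μg/mL each). Compound at 10 nM–50 μM (six levels, triplicate) was present for 3 days at 37 °C before flow cytometric readout of proliferation inhibition rate.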

Data set [2] concerns Human B Lymphocyte cell line, SU-DHL-8. Description: Relative cell viability CCK-8, SU-DHL-8. In kind it is cell-based. As to conditions: for viability at 1 µM / viability at 10 µM / viability at 30 µM / viability at 50 µM: Homo sapiens, SU-DHL-8, 48 h, 48 hours, untreated (DMSO) = 100%; for viability at 1 µM: read-out: Relative cell viability (%), SU-DHL-8, 1 μM; for viability at 10 µM: read-out: Relative cell viability (%), SU-DHL-8, 10 μM; for viability at 30 µM: read-out: Relative cell viability (%), SU-DHL-8, 30 μM; for viability at 50 µM: read-out: Relative cell viability (%), SU-DHL-8, 50 μM; for Relative cell viability (%), SU-DHL-8: human, 48 h. The protocol:
Human-derived B lymphoma cell line SU-DHL-8 (Cat. #CRL-2961) purchased from ATCC was cultured in RPMI-1640 medium containing 10% FBS, 100 U/mL penicillin, and 100 μg/mL streptomycin.
The cell culture medium was then harvested, centrifuged at 1,300 rpm for 5 minutes, and the supernatant was removed. The cells were resuspended in the same medium and dispensed into a 96-well plate (Costar 96-well cell culture plate, Corning) at 90 μL per well, resulting in the conditions specified in Table 5.
Then, 10 μL of CCK-8 was added to each well, and the plates were incubated again at 37° C. in a 5% CO2 incubator for 4 hours.
In other words, when the survival rate of untreated cells (DMSO) is set at 100%, the relative cell survival rate in each group treated with the drug at different concentrations is indicated.

Turning to `COC(=O)CN1CCN(CCCCCCCCCCCCC(=O)Nc2nc(N)c3[nH]cnc3n2)CC1` [Compound 7, 12-[4-(2-methoxy-2-oxoethyl)piperazin-1-yl]dodecyl-N-(6-aminopurine-2-yl) carboxamide], in data set [1] (compound 10 nM), the inhibition at 0.01 µM worked out at 5.14%. Further, the inhibition at 0.1 µM in data set [1] (compound 100 nM) worked out at 100%. Moreover, in data set [1] (compound 1 μM), the inhibition at 1 µM was 100%. Besides, the inhibition at 10 µM in data set [1] (compound 10 μM) was 100%. The inhibition at 30 µM in data set [1] (compound 30 μM) amounted to 100%. For the same molecule, the inhibition at 50 µM in data set [1] (compound 50 μM) came out at 100%. Besides, in data set [2], the viability at 1 µM worked out at 5.17%, the viability at 10 µM worked out at 4.16%, the viability at 30 µM worked out at 3.48% and the viability at 50 µM was determined as 3.17%.

In the case of `Nc1ncccc1C(=O)NCCCCCCCCCCCCn1ncc2ccc(Cl)nc21` [Compound 123, 2-Amino-N-(12-(6-chloro-1H-pyrazolo[3,4-b]pyridin-1-yl)dodecyl)nicotinamide], in data set [1] (compound 10 nM), the inhibition at 0.01 µM was -2.54%. Also, the inhibition at 0.1 µM in data set [1] (compound 100 nM) amounted to 4.78%. The inhibition at 1 µM in data set [1] (compound 1 μM) stood at 48.4%. In addition, in data set [1] (compound 10 μM), the inhibition at 10 µM turned out to be 100%. In addition, in data set [1] (compound 30 μM), the inhibition at 30 µM was 100%. In addition, the inhibition at 50 µM in data set [1] (compound 50 μM) came to 100%. In data set [2], the viability at 1 µM amounted to 42.2%, the viability at 10 µM amounted to 42.2%, the viability at 30 µM was found to be 44.6% and the viability at 50 µM is 48.8%.

In the case of `CN1CCN(C(=O)OC(C)(C)C)CC1CCCCCCCCNC(=O)c1cccnc1N` (stereo not drawn) [Compound 12, tert-Butyl 3-(8-(2-aminonicotinamido)octyl)-4-methylpiperazine-1-carboxylate], in data set [2], the viability at 1 µM stood at 7.6%, the viability at 10 µM was determined as 3.79%, the viability at 30 µM came to 1.64% and the viability at 50 µM is 1.13%.

Take `Cl.Nc1ncccc1C(=O)NCCCCCCCCCCCF` [Compound 71, 3-(11-fluoro-undecylcarbamoyl)-pyridin-2-yl-ammonium chloride]: the viability at 50 µM in data set [2] worked out at 0.75%. The “Relative cell viability (%), SU-DHL-8” value in data set [2] (1 µM) is 5.57%; in data set [2] (10 µM) it was 4.05%; in data set [2] (30 µM) it was 2.04%.

For `Nc1ncccc1C(=O)NCCCCCCCCCCF` [Compound 68, 2-Amino-N-(10-fluoro-decyl)-nicotinamide], in data set [2], the viability at 1 µM stood at 16.1% and the viability at 10 µM was found to be 15.3%. Moreover, the “Relative cell viability (%), SU-DHL-8” value in data set [2] (30 µM) is listed as −2.90%. Besides, the “Relative cell viability (%), SU-DHL-8” value in data set [2] (50 µM) was −5.64%.

`Nc1ncccc1C(=O)NCCCCCCCCCCCF` [Compound 70, 2-Amino-N-(11-fluoro-undecyl)-nicotinamide]: in data set [2], the viability at 1 µM is 5.01%, the viability at 10 µM was determined as 4.94% and the viability at 30 µM amounted to 1.45%. Besides, in data set [2] (50 µM), the “Relative cell viability (%), SU-DHL-8” value is −0.57%.

On to `COC1CCN(CCCCCCCCCCCCNC(=O)c2cccnc2N)CC1` [Compound 94, 2-amino-N-(12-(4-methoxypiperidin-1-yl)dodecyl) nicotinamide], for which the “Proliferation inhibition rate (%)” value in data set [1] (compound 10 nM) is −25.44%; in data set [1] (compound 100 nM), 100.00%; in data set [1] (compound 1 μM), 100.00%; in data set [1] (compound 10 μM) it was 100.00%; in data set [1] (compound 30 μM) it was 100.00%; in data set [1] (compound 50 μM), 100.00%.

Regarding `Cc1c(Cl)cccc1C(=O)NCCCCCCCCCCCCN1CCN(C)CC1` [Compound 219, 3-Chloro-2-methyl-N-(12-(4-methylpiperazin-1-yl)dodecyl)benzamide], in data set [1] (compound 10 nM), the inhibition at 0.01 µM is -5.37%. Also, the inhibition at 0.1 µM in data set [1] (compound 100 nM) turned out to be 2.18%. In addition, the inhibition at 1 µM in data set [1] (compound 1 μM) amounted to 3.48%. Also, the inhibition at 10 µM in data set [1] (compound 10 μM) came to 66.5%. For the same molecule, the inhibition at 30 µM in data set [1] (compound 30 μM) stood at 100%. In addition, in data set [1] (compound 50 μM), the inhibition at 50 µM was 100%.

Consider `Nc1ncccc1C(=O)NCCCCCCCCCCCCN1CCN(CC2CCCCC2)CC1` [Compound 113, 2-amino-N-(12-(4-(cyclohexylmethyl)piperazin-1-yl)dodecyl)nicotinamide], for which the inhibition at 0.01 µM in data set [1] (compound 10 nM) was found to be 11.1%. For the same molecule, the inhibition at 0.1 µM in data set [1] (compound 100 nM) was 100%. In addition, in data set [1] (compound 1 μM), the inhibition at 1 µM worked out at 100%. In addition, the inhibition at 10 µM in data set [1] (compound 10 μM) was 100%. Also, in data set [1] (compound 30 μM), the inhibition at 30 µM came out at 100%. For the same molecule, the inhibition at 50 µM in data set [1] (compound 50 μM) turned out to be 100%.

Regarding `CN1CCN(CCCCCCCCCCCCNC(=O)c2ccccc2-c2ccccc2)CC1` [Compound 194, N-(12-(4-methylpiperazin-1-yl)dodecyl)-[1,1′-biphenyl]-2-carboxamide], the inhibition at 0.01 µM in data set [1] (compound 10 nM) is -4.09%. For the same molecule, the inhibition at 0.1 µM in data set [1] (compound 100 nM) was -2.4%. Also, in data set [1] (compound 1 μM), the inhibition at 1 µM is -1.68%. Moreover, the inhibition at 10 µM in data set [1] (compound 10 μM) worked out at 100%. The inhibition at 30 µM in data set [1] (compound 30 μM) is 100%. In addition, the inhibition at 50 µM in data set [1] (compound 50 μM) turned out to be 100%.

Turning to `Nc1ncccc1C(=O)NCCCCCCCCCCCCN1CCC(F)(F)CC1` [Compound 114, 2-amino-N-(12-(4,4-difluoropiperidin-1-yl)dodecyl)nicotinamide], the inhibition at 0.01 µM in data set [1] (compound 10 nM) was -18.3%. Also, the inhibition at 0.1 µM in data set [1] (compound 100 nM) worked out at 26.2%. Also, the inhibition at 1 µM in data set [1] (compound 1 μM) was determined as 100%. Further, the inhibition at 10 µM in data set [1] (compound 10 μM) was 100%. Moreover, in data set [1] (compound 30 μM), the inhibition at 30 µM was found to be 100%. For the same molecule, the inhibition at 50 µM in data set [1] (compound 50 μM) came to 100%.

Turning to `CN(CCCCCCCCCCCCNC(=O)c1cccnc1N)C(C)(C)C` [Compound 53, 2-Amino-N-(12-(tert-butyl(methyl)amino)dodecyl) nicotinamide], the “Proliferation inhibition rate (%)” value is −26.59% in data set [1] (compound 10 nM); 100.00% in data set [1] (compound 100 nM); 100.00% in data set [1] (compound 1 μM); 100.00% in data set [1] (compound 10 μM); 100.00% in data set [1] (compound 30 μM); 100.00% in data set [1] (compound 50 μM).

As for `Nc1ncccc1C(=O)NCCCCCCCCCCCCN1CCC(O)CC1` [Compound 48, 2-Amino-N-(12-(4-hydroxypiperidin-1-yl)dodecyl) nicotinamide], the “Proliferation inhibition rate (%)” value in data set [1] (compound 10 nM, listed as PBK-2025-012, 0.01 µM) is given as −18.31%; in data set [1] (compound 100 nM), 100.00%; in data set [1] (compound 1 μM), 100.00%; in data set [1] (compound 10 μM), 100.00%; in data set [1] (compound 30 μM), 100.00%; in data set [1] (compound 50 μM) it was 100.00%.

Take `Cc1ccc(C(=O)NCCCCCCCCCCCCN2CCN(C)CC2)nc1` [Compound 202, 5-Methyl-N-(12-(4-methylpiperazin-1-yl)dodecyl)picolinamide]: in data set [1] (compound 10 nM), the inhibition at 0.01 µM is 4.05%. In data set [1] (compound 100 nM), the inhibition at 0.1 µM turned out to be 13.2%. Also, in data set [1] (compound 1 μM), the inhibition at 1 µM stood at 19%. Moreover, the inhibition at 10 µM in data set [1] (compound 10 μM) amounted to 100%. For the same molecule, the inhibition at 30 µM in data set [1] (compound 30 μM) amounted to 100%. In addition, the inhibition at 50 µM in data set [1] (compound 50 μM) worked out at 100%.

Turning to `COc1ncccc1C(=O)NCCCCCCCCCCCCN1CCN(C)CC1` [Compound 200, 2-Methoxy-N-(12-(4-methylpiperazin-1-yl)dodecyl)nicotinamide], the inhibition at 0.01 µM in data set [1] (compound 10 nM) is 0%. For the same molecule, the inhibition at 0.1 µM in data set [1] (compound 100 nM) is 0%. In addition, the inhibition at 1 µM in data set [1] (compound 1 μM) is 0%. For the same molecule, the inhibition at 10 µM in data set [1] (compound 10 μM) amounted to 80%. Moreover, the inhibition at 30 µM in data set [1] (compound 30 μM) came out at 100%. Besides, the inhibition at 50 µM in data set [1] (compound 50 μM) came out at 100%.

By viability is commonly meant the share of living cells, or the viability signal relative to a control.
